# In patent US10350210B2, “EGFR and ALK dual inhibitor” (PRECEDO PHARMACEUTICALS CO., LTD, priority 2015, dated 2019):
# Legend:
# BaF3-TEL-ALK = test: Cell growth (Cell Titer-Glo viability), BaF3-TEL-ALK; type: cell-based; conditions: Mus musculus; BaF3-TEL-ALK (stably expressing ALK kinase), 72 hrs
# Outline: (§1)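 Antiproliferative assay in engineered BaF3 lines made IL-3-independent by retroviral TEL-fused kinase constructs, and in cancer cell lines HCC827 (EGFR del19) and NCI-H3255 (EGFR L858R). Viable cells quantified by Cell Titer-Glo luminescence.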
# A549 = test: Growth of cancer cells (Cell Titer-Glo viability), A549; type: cell-based; conditions: Homo sapiens; A549 (wild-type EGFR), 72 hrs
# BaF3-FL-EGFR-T790M-L858R = test: Cell growth (Cell Titer-Glo viability), BaF3-FL-EGFR-T790M-L858R; type: cell-based; conditions: Mus musculus; BaF3-FL-EGFR-T790M-L858R (EGFR T790M/L858R mutant kinase), 72 hrs
# Protocol: By testing the effect of the novel kinase inhibitors on the proliferation of cancer cells, the selectivity of the compounds of the present disclosure in inhibiting the proliferation of cancer cells was further assessed. […]
# (§2) The number of viable cells was determined quantitatively by a microplate reader using Cell Titer-Glo® (Promega, US) chemiluminescence cell viability assay kit.
# NCI-H1975 = test: Growth of cancer cells (Cell Titer-Glo viability), NCI-H1975; type: cell-based; conditions: Homo sapiens; NCI-H1975 (EGFR L858R/T790M double mutant), 72 hrs
# Outline: (§3)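 Cells are counted as viable by CellTiter-Glo chemiluminescence. Murine BaF3 lines depend on a stably transfected TEL-fused kinase after IL-3 withdrawal, and the NSCLC lines express mutant EGFR.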
# BaF3-NPM-ALK = test: Cell growth (Cell Titer-Glo viability), BaF3-NPM-ALK; type: cell-based; conditions: Mus musculus; BaF3-NPM-ALK (stably expressing ALK kinase), 72 hrs
# NCI-H3122 = test: Growth of cancer cells (Cell Titer-Glo viability), NCI-H3122; type: cell-based; conditions: Homo sapiens; NCI-H3122 (expressing ALK gene), 72 hrs; read-out: GI50
# CHO = test: Cell growth (Cell Titer-Glo viability), CHO; type: cell-based, Chinese hamster; conditions: Cricetulus griseus; CHO Chinese hamster ovary cell, 72 hrs; read-out: GI50
# BaF3-ALK-F1174L = test: Cell growth (Cell Titer-Glo viability), BaF3-ALK-F1174L; type: cell-based; conditions: Mus musculus; BaF3-ALK-F1174L (mutant ALK F1174L kinase), 72 hrs
# Outline: as §1
# BaF3 = test: Cell growth (Cell Titer-Glo viability), BaF3; type: cell-based; conditions: BaF3 mouse primary B cell, 72 hrs
# A431 = test: Growth of cancer cells (Cell Titer-Glo viability), A431; type: cell-based; conditions: Homo sapiens, A-431; A431 (wild-type EGFR), 72 hrs; read-out: GI50
# CHL = test: Cell growth (Cell Titer-Glo viability), CHL; type: cell-based, Chinese hamster; conditions: Cricetulus griseus; CHL Chinese hamster lung cell, 72 hrs; read-out: GI50
# NCI-H2122 = test: Growth of cancer cells (Cell Titer-Glo viability), NCI-H2122; type: cell-based; conditions: Homo sapiens; NCI-H2122 (wild-type EGFR), 72 hrs
# PC-9 = test: Growth of cancer cells (Cell Titer-Glo viability), PC-9; type: cell-based; conditions: Homo sapiens; PC-9 (EGFR delE746_A750 mutant), 72 hrs
# Outline: as §3
# NCI-H2228 = test: Growth of cancer cells (Cell Titer-Glo viability), NCI-H2228; type: cell-based; conditions: Homo sapiens; NCI-H2228 (wild-type ALK), 72 hrs
# BaF3-TEL-EGFR = test: Cell growth (Cell Titer-Glo viability), BaF3-TEL-EGFR; type: cell-based; conditions: Mus musculus; BaF3-TEL-EGFR (stably expressing EGFR kinase), 72 hrs
# Description: (§4) By testing the effect of the novel kinase inhibitors on the proliferation of cancer cells, the selectivity of the compounds of the present disclosure in inhibiting the proliferation of cancer cells was further assessed. In this example, human non-small cell lung cancer cell NCI-H1975 (expressing EGFR L858R/T790M double mutant gene), human skin squamous carcinoma cell A431 (expressing wild-type EGFR gene), non-small cell lung cancer NCI-H3255 (expressing EGFR L858R mutant gene), non-small cell lung cancer cell NCI-H3122 (expressing ALK gene), human non-small cell lung cancer cell A549 (expressing wild-type EGFR gene), human non-small cell lung cancer cell NCI-H2122 (expressing wild-type EGFR gene), human non-small cell lung cancer cell NCI-H460 (expressing wild-type EGFR gene), human non-small cell lung cancer cell PC-9 (expressing EGFR delE746_A750 mutant gene), Chinese hamster ovary cell CHO (Cricetulus griseus, hamster, Chinese, ovary), Chinese hamster lung cell CHL, human non-small cell lung cancer cell HCC827 (expressing mutant EGFR del19 gene), human lung adenocarcinoma cell HCC4006 (expressing mutant EGFR del19 gene), human non-small cell lung cancer cell NCI-H2228 (expressing wild-type ALK gene), and mouse primary B cell BaF3 were used, and the above cells were all purchased from ATCC (US). In addition, mouse BaF3-TEL-ALK (stably expressing ALK kinase), mouse BaF3-ALK-F1174L (stably expressing mutant ALK F1174L kinase), mouse BaF3-NPM-ALK (stably expressing ALK kinase), mouse BaF3-TEL-EGFR (stably expressing EGFR kinase), mouse BaF3-TEL-EGFR-T790M (stably expressing EGFR T790M mutant kinase), mouse BaF3-FL-EGFR-Del19 (stably expressing EGFR delE746_A750 mutant kinase), mouse BaF3-TEL-EGFR-L858R (stably expressing EGFR L858R mutant kinase), mouse BaF3-FL-EGFR-T790M-L858R (stably expressing EGFR T790M/L858R mutant kinase), mouse BaF3-TEL-INSR (stably expressing INSR protein), mouse BaF3-TEL-IGF1R (stably expressing IGF1R Protein), mouse BaF3-EML4-ALK (stably expressing EML4-ALK Protein), mouse BaF3-TEL-JAK3 (stably expressing JAK3 kinase protein), mouse BaF3-TEL-CSF1R (stably expressing CSF1R protein), and mouse BaF3-TEL-ALK-F1196M (stably expressing ALK F1196M mutant kinase) were also used in this example. The above cell lines were all established by our laboratory via the following process: kinase proteins or protein domain sequences of human ALK, ALK F1174L, EGFR, EGFR T790M, EGFR delE746_A750, EGFR L858, EGFR T790M/L858R, INSR, IGF1R, EML4-ALK, JAK3, CSF1R, ALK F1196M were amplified respectively by PCR, and were respectively inserted into MSCV-Puro vector (Clontech) with N-terminal TEL fragments and/or NPM fragments and/or TPR fragments; the resultants were stably transfected into mouse BaF3 cells by the means of retrovirus, and the IL-3 growth factors were removed, and eventually the ALK, ALK F1174L, EGFR, EGFR T790M, EGFR delE746_A750, EGFR L858, EGFR T790M/L858R, INSR, IGF1R, EML4-ALK, JAK3, CSF1R, ALK F1196M-transferred protein dependent cell lines were obtained.
# as §2
# HCC4006 = test: Growth of cancer cells (Cell Titer-Glo viability), HCC4006; type: cell-based; conditions: Homo sapiens; HCC4006 (mutant EGFR del19), 72 hrs
# Description: as §4, §2
# [1] = tested on: EGFR protein (wild-type EGFR, A549); test: Effect on signaling pathway in cells, A549; type: cell-based, human; conditions: control at 1 μM, 4 h, compared with Compound 1 (little effect)
# Description: In four cell lines (all purchased from ATCC) including non-small cell lung cancer cell line A549 (expressing wild-type EGFR gene), non-small cell lung cancer cell line H1975 (expressing EGFR L858R/T790M double mutant gene), non-small cell lung cancer cell line H3255 (expressing EGFR L858R mutant gene) and non-small cell lung cancer cell line PC-9 (expressing EGFR delE746_A750 mutant gene), the effect of Compound 1 on EGFR or other protein kinases related to signaling pathways of EGFR such as Stat3, AKT, ErK, eIF4E, 4EBP1, P70S6K was assessed by assaying a number of cellular biochemical and functional endpoints. […] The effect of Compound 1 on phosphorylation of Stat3Y705, AKT T308, AKT 5473, Erk T202/204, EGFR Y1068, P70S6K Thr389, eIF4E Ser209, Erk T202/204, 4EBP1 (Thr37/46) in these cell lines was assayed (FIGS. 1a to 1d).
# HCC827 = test: Growth of cancer cells (Cell Titer-Glo viability), HCC827; type: cell-based; conditions: Homo sapiens; HCC827 (mutant EGFR del19), 72 hrs
# Outline: as §1
# NCI-H460 = test: Growth of cancer cells (Cell Titer-Glo viability), NCI-H460; type: cell-based; conditions: Homo sapiens; NCI-H460 (wild-type EGFR), 72 hrs
# Description: as §4, §2
# BaF3-TEL-EGFR-T790M = test: Cell growth (Cell Titer-Glo viability), BaF3-TEL-EGFR-T790M; type: cell-based; conditions: Mus musculus; BaF3-TEL-EGFR-T790M (EGFR T790M mutant kinase), 72 hrs
# Outline: as §1
# NCI-H3255 = test: Growth of cancer cells (Cell Titer-Glo viability), NCI-H3255; type: cell-based; conditions: Homo sapiens; NCI-H3255 (EGFR L858R mutant), 72 hrs
# Description: as §4, §2
compound,measurement,setting,value
"C=CC(=O)Nc1cc(Nc2ncc(Cl)c(Nc3ccccc3S(=O)(=O)C(C)C)n2)c(OC)cc1N1CCN(C(C)C)CC1 [Compound 11, N-(5-(5-chloro-4-(2-(isopropylsulfonyl)phenylamino)pyrimidin-2-ylamino)-2-(4-isopropylpiperazin-1-yl)-4-methoxyphenyl)acrylamide]",GI50,BaF3-TEL-ALK,< 3 nM
same,GI50,A549,210 nM
same,GI50,BaF3-FL-EGFR-T790M-L858R,2 nM
same,GI50,NCI-H1975,25 nM
same,GI50,BaF3-NPM-ALK,< 0.3 nM
same,GI50,NCI-H3122,< 0.3 nM
same,GI50,CHO,1300 nM
same,GI50,BaF3-ALK-F1174L,530 nM
same,GI50,BaF3,450 nM
same,GI50,A431,140 nM
same,GI50,CHL,1100 nM
same,GI50,NCI-H2122,190 nM
same,GI50,PC-9,24 nM
same,GI50,NCI-H2228,< 3 nM
"C=CC(=O)Nc1cccc(Oc2nc(Nc3ccc(N4CCN(C)CC4)cc3OC)ncc2Cl)c1 [WZ4002, reference compound]",GI50,BaF3-TEL-EGFR,1600 nM
same,GI50,HCC4006,7.2 nM
same,"effect on phosphorylation of EGFR protein and of STAT3, S6K, AKT, ERK, eIF4E",[1],behaved similarly
same,GI50,HCC827,1.2 nM
same,GI50,NCI-H1975,21 nM
same,GI50,BaF3-NPM-ALK,1400 nM
same,GI50,NCI-H460,8100 nM
same,GI50,NCI-H3122,3200 nM
same,GI50,NCI-H2122,5700 nM
same,GI50,PC-9,27 nM
same,GI50,NCI-H2228,1100 nM
same,GI50,BaF3-TEL-EGFR-T790M,46 nM
same,GI50,NCI-H3255,390 nM
